Legend:
C32 (Melanoma) [1] = assay: combination Emax (second highest fraction inhibited in the dose matrix, 72 h); higher = more inhibition; extreme values may be limits of the assay
Procedure, shortened: (§1)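 Bliss excess equals the observed combination effect minus the expected value EA + EB − EA·EB, where EA and EB are the effects of each agent alone. Combination Emax is the second-highest inhibition within the matrix. Inhibition was scaled from CellTiter-Glo 2.0 luminescence, with 0 set by vehicle wells and 1 by blank wells, after 72 hours of two-drug dosing of cells plated in 1536-well plates.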

A375 (Melanoma) = assay: as above
Procedure, shortened: as §1

C32 (Melanoma) [2] = assay: Bliss excess, mean over the matrix (fraction); higher = more synergy
Procedure, shortened: as §1

GCIY (Gastric Carcinoma) = assay: as above
Procedure, shortened: as §1

[3] = test system: MRK-nu-1 (Breast Carcinoma); assay: as above
Procedure, shortened: as §1

[4] = test system: NCI-H835 (Other Solid Carcinomas); assay: as above
Procedure, shortened: as §1

[5] = test system: COR-L105 (Lung Adenocarcinoma); assay: as above
Procedure, shortened: as §1

[6] = test system: NCI-H2009 (Lung Adenocarcinoma); assay: as above
Procedure, shortened: as §1

[7] = test system: NCI-H2023 (Non-Small Cell Lung Carcinoma); assay: as above
Procedure, shortened: as §1

NCI-H2452 (Mesothelioma) = assay: as above
Procedure, shortened: as §1

[8] = test system: NCI-H1435 (Non-Small Cell Lung Carcinoma); assay: as above
Procedure, shortened: as §1

[9] = test system: CAL-85-1 (Breast Carcinoma); assay: as above
Procedure, shortened: as §1

[10] = test system: NTERA-2-cl-D1 (Other Solid Carcinomas); assay: as above
Procedure, shortened: as §1

[11] = test system: ATN-1 (T-Lymphoblastic Leukemia); assay: as above
Procedure, shortened: as §1

[12] = test system: OCI-M1 (Acute Myeloid Leukemia); assay: as above
Procedure, shortened: as §1

[13] = test system: SNU-1 (Gastric Carcinoma); assay: as above
Procedure, shortened: as §1

[14] = test system: SBC-5 (Small Cell Lung Carcinoma); assay: as above
Procedure, shortened: as §1

[15] = test system: NCI-H1048 (Small Cell Lung Carcinoma); assay: as above
Procedure, shortened: as §1

DK-MG (Glioblastoma) = assay: as above
Procedure, shortened: as §1

SK-N-DZ (Neuroblastoma) = assay: as above
Procedure, shortened: as §1

N#Cc1cnc(Nc2cc(NC[C@H]3CNCCO3)c(C(F)(F)F)cn2)cn1 [SRA737] + Nc1ccn([C@@H]2O[C@H](CO)[C@@H](O)C2(F)F)c(=O)n1 [Gemcitabine] (first compound max 10 µM, 7x7, partner max 0.3 µM) was tested, and the “combination Emax” value (C32 (Melanoma) [1]) was 0.724, the “combination Emax” value (A375 (Melanoma)) was 0.972 and the Bliss excess (C32 (Melanoma) [2]) was -0.0986. For the same molecule, the Bliss excess (GCIY (Gastric Carcinoma)) was -0.0085, the Bliss excess [3] was 0.0214 and the Bliss excess [4] was -0.0363. It also gave a Bliss excess [5] of -0.0009, a Bliss excess [6] of 0.125 and a Bliss excess [7] of 0.0332. The Bliss excess (NCI-H2452 (Mesothelioma)) was 0.0892, the Bliss excess [8] was 0.0521 and the Bliss excess [9] was 0.0442. The Bliss excess [10] was 0.0301.

C=CCn1c(=O)c2cnc(Nc3ccc(N4CCN(C)CC4)cc3)nc2n1-c1cccc(C(C)(C)O)n1 [AZD1775] + C1CN(CCC1(C(=O)N[C@@H](CCO)C2=CC=C(C=C2)Cl)N)C3=NC=NC4=C3C=CN4 [Capivasertib] (first compound max 3 µM, partner max 3 µM) was tested, and the “combination Emax” value (C32 (Melanoma) [1]) was 0.52, the “combination Emax” value (A375 (Melanoma)) was 0.813 and the Bliss excess (C32 (Melanoma) [2]) was -0.0772. For the same molecule, the Bliss excess [11] was 0.0364, the Bliss excess (GCIY (Gastric Carcinoma)) was -0.0277 and the Bliss excess [3] was -0.0885. It also gave a Bliss excess [4] of -0.0572, a Bliss excess [5] of -0.0627 and a Bliss excess [12] of 0.0245. The Bliss excess [6] was -0.0011, the Bliss excess [7] was -0.003 and the Bliss excess [13] was 0.0488. The Bliss excess [14] was 0.0256, the Bliss excess [15] was -0.0301 and the Bliss excess (DK-MG (Glioblastoma)) was -0.0023. It also gave a Bliss excess (SK-N-DZ (Neuroblastoma)) of -0.0116, a Bliss excess (NCI-H2452 (Mesothelioma)) of -0.116 and a Bliss excess [8] of 0.0011. It also gave a Bliss excess [9] of -0.0528.

For COc1cc2c(cc1OCCCCCOc1cc3c(cc1OC)C(=O)N1C=C(C)C[C@H]1C=N3)N=C[C@@H]1CC(C)=CN1C2=O [SG3199] + O=C(c1cc(Cc2n[nH]c(=O)c3ccccc23)ccc1F)N1CCN(C(=O)C2CC2)CC1 [Olaparib] (first compound max 0.001 µM, 7x7, partner max 10 µM), the “combination Emax” value (C32 (Melanoma) [1]) was 0.0494, the “combination Emax” value (A375 (Melanoma)) was 0.209 and the Bliss excess (C32 (Melanoma) [2]) was -0.0373. It also gave a Bliss excess [11] of -0.0249, a Bliss excess (GCIY (Gastric Carcinoma)) of -0.0152 and a Bliss excess [3] of -0.0642. It also gave a Bliss excess [4] of -0.0406, a Bliss excess [5] of -0.0371 and a Bliss excess [12] of -0.0065. It also gave a Bliss excess [6] of -0.0297, a Bliss excess [7] of -0.0562 and a Bliss excess [13] of 0.0755. The Bliss excess [14] was -0.0193, the Bliss excess [15] was -0.0432 and the Bliss excess (DK-MG (Glioblastoma)) was -0.0446. The Bliss excess (SK-N-DZ (Neuroblastoma)) was -0.0199, the Bliss excess (NCI-H2452 (Mesothelioma)) was -0.117 and the Bliss excess [8] was -0.0584. For the same molecule, the Bliss excess [9] was -0.0407 and the Bliss excess [10] was -0.0586.

For CN(CCO)CC[C@H](CSc1ccccc1)Nc1ccc(S(=O)(=O)NC(=O)c2ccc(N3CCC([C@@H](O)c4ccccc4-c4ccc(Cl)cc4)CC3)cc2)cc1S(=O)(=O)C(F)(F)F [AZD4320] + C[C@@H](Nc1cc(F)cc(F)c1)c1cc(C(=O)N(C)C)cc2c(=O)cc(N3CCOCC3)oc12 [AZD8186] (first compound max 1 µM, 7x7, partner max 3 µM), the “combination Emax” value (C32 (Melanoma) [1]) was 0.681, the “combination Emax” value (A375 (Melanoma)) was 0.519 and the Bliss excess (C32 (Melanoma) [2]) was -0.0046. The Bliss excess [11] was -0.0214, the Bliss excess (GCIY (Gastric Carcinoma)) was 0.0022 and the Bliss excess [3] was -0.0216. For the same molecule, the Bliss excess [5] was -0.0279, the Bliss excess [12] was 0.0278 and the Bliss excess [6] was -0.0035. The Bliss excess [7] was -0.034, the Bliss excess [13] was -0.0024 and the Bliss excess [14] was 0.0591. It also gave a Bliss excess [15] of 0.0388, a Bliss excess (DK-MG (Glioblastoma)) of -0.0164 and a Bliss excess (SK-N-DZ (Neuroblastoma)) of -0.0302. It also gave a Bliss excess (NCI-H2452 (Mesothelioma)) of -0.0369, a Bliss excess [8] of 0.131 and a Bliss excess [9] of 0.0145. For the same molecule, the Bliss excess [10] was 0.0543.

In the case of Cc1cc2ncnn2cc1Nc1ncc2c(n1)n(C1CCOCC1)c(=O)n2C [AZD7648] + O=C(c1cc(Cc2n[nH]c(=O)c3ccccc23)ccc1F)N1CCN(C(=O)C2CC2)CC1 [Olaparib] (first compound max 10 µM, 7x7, partner max 10 µM), the “combination Emax” value (C32 (Melanoma) [1]) is reported as 0.0555, the “combination Emax” value (A375 (Melanoma)) is reported as 0.234 and the Bliss excess (C32 (Melanoma) [2]) is reported as -0.0375. The Bliss excess [11] was -0.031, the Bliss excess (GCIY (Gastric Carcinoma)) was -0.0554 and the Bliss excess [3] was -0.0615. For the same molecule, the Bliss excess [5] was -0.034, the Bliss excess [12] was -0.0248 and the Bliss excess [6] was -0.0372. For the same molecule, the Bliss excess [7] was -0.0892, the Bliss excess [13] was 0.0384 and the Bliss excess [14] was -0.034. It also gave a Bliss excess [15] of -0.0593, a Bliss excess (DK-MG (Glioblastoma)) of -0.0126 and a Bliss excess (SK-N-DZ (Neuroblastoma)) of 0.0102. The Bliss excess (NCI-H2452 (Mesothelioma)) was -0.0664, the Bliss excess [8] was -0.0366 and the Bliss excess [9] was -0.057. For the same molecule, the Bliss excess [10] was 0.0101.

With N#Cc1cnc(Nc2cc(NC[C@H]3CNCCO3)c(C(F)(F)F)cn2)cn1 [SRA737] + CCc1c2c(nc3ccc(O)cc13)-c1cc3c(c(=O)n1C2)COC(=O)[C@]3(O)CC [SN-38] (first compound max 10 µM, 7x7, partner max 0.3 µM) the “combination Emax” value (C32 (Melanoma) [1]) was 0.626, the “combination Emax” value (A375 (Melanoma)) was 0.923 and the Bliss excess (C32 (Melanoma) [2]) was -0.0762. The Bliss excess (GCIY (Gastric Carcinoma)) was -0.0331, the Bliss excess [3] was -0.128 and the Bliss excess [4] was -0.0262. For the same molecule, the Bliss excess [5] was -0.035, the Bliss excess [6] was 0.0451 and the Bliss excess [7] was -0.0813. For the same molecule, the Bliss excess (NCI-H2452 (Mesothelioma)) was 0.0683, the Bliss excess [8] was -0.0243 and the Bliss excess [9] was -0.0479. It also gave a Bliss excess [10] of -0.0004.

For N#Cc1cnc(Nc2cc(NC[C@H]3CNCCO3)c(C(F)(F)F)cn2)cn1 [SRA737] + O=c1[nH]cc(F)c(=O)[nH]1 [5-Fluorouracil] (first compound max 10 µM, 7x7, partner max 20 µM), the “combination Emax” value (C32 (Melanoma) [1]) was 0.15, the “combination Emax” value (A375 (Melanoma)) was 0.226 and the Bliss excess (C32 (Melanoma) [2]) was -0.0343. It also gave a Bliss excess (GCIY (Gastric Carcinoma)) of -0.0044, a Bliss excess [3] of 0.0291 and a Bliss excess [4] of 0.0621. It also gave a Bliss excess [5] of -0.0048, a Bliss excess [6] of 0.0125 and a Bliss excess [7] of 0.0353. The Bliss excess (NCI-H2452 (Mesothelioma)) was 0.0571, the Bliss excess [8] was -0.0012 and the Bliss excess [9] was 0.0703. The Bliss excess [10] was -0.0757.
